In data set [1] the test system is tetrabenazine-induced depression (ptosis) in mice. Put plainly: inhibition of tetrabenazine-induced depression (ptosis) in mice. The data set is classed as in vivo. The conditions noted are these: Mus musculus, read-out: ED50, 50% inhibition of the ptosis of the tetrabenazine-induced depression. The text has this:
Thus, for instance, the intraperitoneal dose at which the following compounds effect a 50% inhibition of the ptosis of the tetrabenazine-induced depression (ED50) in mice are: […]

The subject of data set [2] is supramaximal electro shock in mice. Put plainly: protection from supramaximal electro shock in mice (anticonvulsant). The data set is classed as in vivo. The following applies: Mus musculus, ip, intraperitoneal dose, read-out: ED50, approximately 50% protective from the effect of supramaximal electro shock. The source says: Compounds of the present invention are still further useful as anticonvulsant agents for mammals, as determined by the method of Woodbury, L. A. and Davenport, V. D., in Arch. Int. Pharmacodynam, Vol. 92. (1952) at pages 97 to 107. Thus, for instance, the following intraperitoneal doses at which an approximately 50% protective (ED50) from the effect of supramaximal electro shock in mice are: […]

In data set [3] the test system is climbing behavior induced by apomorphine in mice. Put plainly: apomorphine-induced climbing mice assay (neuroleptic activity). The following applies: intraperitoneally 30 minutes prior to apomorphine 1.5 mg/kg s.c. The data set is classed as in vivo, CD-1 male mice. The procedure:
Central Nervous System Depressant (Neuroleptic) Activity Climbing Mice Assay
The subject CD-1 male mice (23-27 grams) were group-housed under standard laboratory conditions. The mice were individually placed in wire mesh stick cages (4"×4"×10") and were allowed one hour for adaptation and exploration of the new environment. Then apomorphine was injected subcutaneously at 1.5 mg/kg, a dose causing climbing in all subjects for 30 minutes. Compounds to be tested for neuroleptic activity were injected intraperitoneally 30 minutes prior to the apomorphine challenge at a screening dose of 10 mg/kg.
For evaluation of climbing, 3 readings were taken at 10, 20 and 30 minutes after apomorphine administration according to the following scale:
Mice consistently climbing before the injection of apomorphine were discarded.
With full-developed apomorphine climbing, the animals were hanging onto the cage walls, rather motionless, over longer periods of time. By contrast, climbs due to mere motor stimulation usually only lasted a few seconds.
The climbing scores were individually totaled (maximal score: 6 per mouse over 3 readings) and the total score of the control group (vehicle intraperitineally -- apomorphine subcutaneously) was set to 100%.

The next data set has as its system tail flick in mice. Put plainly: modified D'Amour-Smith analgesia (tail flick) assay. The data set is classed as in vivo, male mice (Charles River: CD-1). The following applies: generally s.c. The source says: Analgesic Activity Modified D'Amour-Smith Assay (Tail Flick)
Male mice (Charles River: CD-1) from 18-30 grams were used as test subjects. The mouse tails were individually placed on a "Vee" block and, subsequently, a painful stimulus was produced by an intense light beam (Emdie Instrument Co., Louisa, VA). The subject quickly responds to the noxious stimuli by flicking its tail. The reaction time, the interval between stimulus onset and response, was automatically measured in 1/10-second increments. Prior to drug administration, two control readings of reaction time were measured for each subject with approximately 15 minutes separating the tests. Subjects were discarded if their reaction times in these control tests varied by more than one second or if their inclusion in the study group caused the spread of reaction time to exceed three seconds.
The mean response time (x) and the standard deviation (SD) of the values were then calculated for each set of control scores. The formula presented below was used to calculate cut-off values (C.O.) for each set of control scores and the average of these C.O. values was used to determine evidence of analgesic activity in subsequent drug testing.
The C.O. value was actually a determination of a reaction time which exceeds the mean by two standard deviations. Any reaction time, in subsequent drug tests, which was greater than the C.O. value, therefore exceeds 95% of a normal Gaussian distribution and was called a "positive response" indicative of analgesic activity. Latency changes were calculated by subtracting the tail flick latency of the average control times from the latency after treatment for each mouse.
Compounds were tested in treatment groups of ten subjects and drugs, prepared in distilled water, were generally administered subcutaneously (s.c.) in volumes equivalent to 10 cc/kg. The initial testing was usually in the form of a time response at intervals of 15, 30, 45 and 60 minutes after dosing. If analgesic activity was still increasing at 60 minutes, then two additional groups were tested at 90 minute and 120 minute post dosing.
A time response indicated the period of greatest analgesic effect after dosing. Percent analgesic activity was calculated in the following manner: [formula] Grp.=Group Veh.=Vehicle
The ED50 was determined at the peak time of drug activity. A minimum of three dose groups were employed. Drugs were administered in a randomized manner. ED50 's were calculated using Litchfield-Wilcoxon (LITWL on PDP II) computer analysis.

The test system of data set [4] is phenyl-p-quinone writhing in mice. Nature of the data set: phenyl-p-quinone writhing assay in mice (analgesia). The data set is classed as in vivo. The following applies: Mus musculus, sc, subcutaneous dose, read-out: ED50, approximately 50% inhibition of writhing. The source says:
Compounds of the invention are further useful as analgesic agents due to their ability to alleviate pain in mammals. […] Exptl. Biol Med., 95 729 (1957)]. Thus for instance, the subcutaneous dose effecting an approximately 50% inhibition of writhing (ED50) in mice produced in this assay is as follows: […]
For orientation: Writhing tests count abdominal constrictions after an irritant is injected.

A short description of data set [5]: stability study, gas chromatographic assay (acid stability). The data set is classed as physicochemical. The procedure: Gas chromatographic conditions were established under which 2-fluoro-11-[β-(dimethylamino)ethoxy]dibenz[b,f]oxepin (as the hydrobromide or hydrochloride salts), 2-fluoro-11-[β-(dimethylamino)ethylthio]dibenz[b,f]oxepin (as the hydrobromide salt) and 10,11-dihydro-10-oxodibenz[b,f]oxepin were separated:
Column-Glass 2m×2mm ID packed with 3% OV-225 on 80/100 supelcoport
Temperature: Isothermal at 220° C.
Flow Rate: He at 45 ml/min
Instrument: Perkin-Elmer 3920B
Solutions of 2-fluoro-11-[β-(dimethylamino)ethoxy]dibenz[b,f]oxepin and 2-fluoro-11-[β-(dimethylamino)ethylthio]dibenz[b,f]oxepin were prepared in water at a concentration of 200 mg/100 ml. Portions of these stock aqueous solutions were used in each of the following experiments. All aqueous samples were prepared for gas chromotographic (GC) injection by first adding sodium carbonate solution to adjust the pH to 9 and then extracting with ethyl acetate. The ethyl acetate layer was separated and 2.0μ of it were injected.
II. Acidification of 2.0 ml of 2-fluoro-11-[β-(dimethylamino)ethoxy]dibenz[b,f]oxepin stock solution with 0.2 ml of concentrated hydrochloric acid and standing at ambient temperature produced increases in the levels of 10,11-dihydro-10-oxodibenz[b,f]oxepin beyond the 0.2% level initially contaminating the sample of 2-fluoro-11-[β-(dimethylamino)ethoxy]dibenz[b,f]oxepin.
III. Simultaneous experiments were performed using 2.0 ml of each stock solution of […] and 2-fluoro-11-[β-(dimethylamino)ethylthio]dibenz[b,f]oxepin in individual test tubes. Acidification of each solution with 0.2 ml of concentrated hydrochloric acid and side by side warming (not reflux) for 2 minutes (electric heat gun) produced a visible change.

For data set [6] the following is noted: M. Protvia, et al. Il Farmaco XXI, 98 (1966); cited from earlier work.
Where [7] appears, read: 0.2 ml concentrated hydrochloric acid, warming (not reflux) for 2 minutes.

Where a name gives a salt, the structure may show the parent alone. Read-outs that look alike come from different tables or passages of the source.

For orientation: ED50 means the dose that gives a 50% effect, or the effect in half of the subjects.

Consider `CN(C)CCSC1Cc2ccccc2Oc2ccc(Cl)cc21.O=C(O)C(=O)O` (stereo not drawn) [2-chloro-10,11-dihydro-11-[β-(dimethylamino)-ethylthio]-dibenz[b,f]oxepin oxalate], for which the ED50 in data set [1] (ip, intraperitoneal dose) amounted to 3.5 mg/kg; in data set [2] it was 19.4 mg/kg.
Regarding `CN(C)CCSC1=Cc2ccccc2Oc2ccc(Cl)cc21` [2-chloro-11-[β-(dimethylamino)ethylthio]dibenz[b,f]oxepin], the “Activity (% Inhibition of Climbing)” value in data set [3] (10 mg/kg) is given as 5%. Moreover, in the data set on tail flick in mice (dose 25 mg/kg), the “Analgesic Activity (%)” value turned out to be 20%.
For the compound `CN(C)CCSC1Cc2ccccc2Oc2ccc(F)cc21.O=C(O)C(=O)O` (stereo not drawn) [2-fluoro-10,11-dihydro-11-[β-(dimethylamino)ethylthio]dibenz[b,f]oxepin oxalate], the ED50 in data set [1] (oral dose (footnote *)) came to 7.6 mg/kg; in data set [2], 9 mg/kg; in data set [4], 1.9 mg/kg.
Take `CN(C)CCOC1=Cc2ccccc2Oc2ccc(F)cc21` [2-fluoro-11-[β-(dimethylamino)ethoxy]dibenz[b,f]oxepin]: the “visible change of the acidified solution on warming” value in data set [5] (setting [7]) is “became white and cloudy”. Also, in data set [5] (25 ml stock + 2.5 ml concentrated hydrochloric acid, further reflux 10 mins, to 10,11-dihydro-10-oxodibenz[b,f]oxepin), the “decomposition on reflux after addition of concentrated hydrochloric acid” value is listed as “complete decomposition”. Also, the “decomposition on reflux of aqueous stock solution” value in data set [5] (water, 200 mg/100 ml, reflux, 45 minutes) is given as “no apparent decomposition”. The degraded at 2 min in data set [5] (water, concentrated hcl, 0.2 ml concentrated hydrochloric acid, warming (not reflux) for 2 minutes, read-out: decomposed to 10,11-dihydro-10-oxodibenz[b,f]oxepin by GC analysis) turned out to be 87.2%; in data set [5] (water, concentrated hcl, 2 min, ambient temperature, 2.0 ml stock + 0.2 ml concentrated hydrochloric acid, product 10,11-dihydro-10-oxodibenz[b,f]oxepin, read-out: % Increase in decomposition product) it was 0.35%. For the same compound, in data set [5] (water, concentrated hcl, 60 min, ambient temperature, 2.0 ml stock + 0.2 ml concentrated hydrochloric acid, product 10,11-dihydro-10-oxodibenz[b,f]oxepin, read-out: % Increase in decomposition product), the degraded at 1 h was found to be 2.16%. Further, the degraded at 140 min in data set [5] (water, concentrated hcl, 140 min, ambient temperature, 2.0 ml stock + 0.2 ml concentrated hydrochloric acid, product 10,11-dihydro-10-oxodibenz[b,f]oxepin, read-out: % Increase in decomposition product) amounted to 3%.
Turning to `Br.CN(C)CCSC1=Cc2ccccc2Oc2ccc(F)cc21` [2-fluoro-11-[β-(dimethylamino)ethylthio]dibenz[b,f]oxepin hydrobromide], the ED50 amounted to 4.3 mg/kg in data set [1] (ip, intraperitoneal dose) and 9.2 mg/kg in data set [2].
With `CN(C)CCSC1=Cc2ccccc2Oc2ccc(F)cc21` [2-fluoro-11-[β-(dimethylamino)ethylthio]dibenz[b,f]oxepin], the “Activity (% Inhibition of Climbing)” value in data set [3] (10 mg/kg) worked out at 10%. In addition, the “Analgesic Activity (%)” value in the data set with tail flick in mice (dose 23.9 mg/kg) was determined as 50%. In data set [5] (setting [7]), the “decomposition by GC analysis (in words)” value was “did not decompose”; the “visible change of the acidified solution on warming” value is “remained clear and colorless”.
For `CNCCSC1=Cc2ccccc2Oc2ccc(F)cc21.O=C(O)/C=C\C(=O)O` [2-fluoro-11-[β-(methylamino)ethylthio]dibenz[b,f]oxepin maleate], the ED50 in data set [1] (ip, intraperitoneal dose) was 0.3 mg/kg; in data set [2], 9.9 mg/kg; in data set [4], 2.3 mg/kg.
As for `CNCCSC1=Cc2ccccc2Oc2ccc(F)cc21` [2-fluoro-11-[β-(methylamino)ethylthio]dibenz[b,f]oxepin], the “Analgesic Activity (%)” value in the data set with tail flick in mice (dose 11.3 mg/kg) is on record as 50%.
In the case of `CN(C)CCSC1Cc2ccccc2Oc2ccccc21` (stereo not drawn) [10,11-dihydro-10-[β-(dimethylamino)ethylthio[dibenz[b,f]oxepin oxalate], the ED50 in data set [1] (ip, intraperitoneal dose) came out at 7 mg/kg; in data set [2], 7.7 mg/kg.
With `CNCCSC1=Cc2ccccc2Oc2ccccc21.O=C(O)C(=O)O` [10-[β(methylamino)ethylthio]dibenz[b,f]oxepin oxalate], the ED50 was found to be 3.4 mg/kg in data set [1] (ip, intraperitoneal dose); 21 mg/kg in data set [2]; 2.3 mg/kg in data set [4].
On to `CN(C)CCSC1=Cc2ccccc2Oc2ccccc21` [10-[β-(dimethylamino)ethylthio]dibenz[b,f]oxepin], for which, in data set [3] (15 mg/kg), the “Activity (% Inhibition of Climbing)” value is recorded as 20%. Further, the “Analgesic Activity (%)” value in the data set with tail flick in mice (dose 25 mg/kg) amounted to 30%.
`CNCCSC1=Cc2ccccc2Oc2ccccc21` [10-[β-(methylamino)ethylthio]dibenz[b,f]oxepin]: the “Analgesic Activity (%)” value in the data set on tail flick in mice (dose 11.6 mg/kg) amounted to 50%.
As for `CSc1ccc2c(c1)C(SCCN(C)C)=Cc1ccccc1O2` [11-[β-(dimethylamino)ethylthio]-2-(methylthio)dibenz[b,f]oxepin], the “Activity (% Inhibition of Climbing)” value in data set [3] (10 mg/kg) is 18%. The “Analgesic Activity (%)” value in the data set with tail flick in mice (dose 14.1 mg/kg) was 50%.
For the compound `CN(C)CCOC1Cc2ccccc2Sc2ccc(Cl)cc21` (centres unmarked) [Amethoclothepine], the “central depressant activity (in words)” value in data set [6] was “central depressant activity”.

The values above are taken from patent US4837227A, “Aminoalkylthiodibenzoxepins and pharmaceutical use” (Hoechst-Roussel Pharmaceuticals, Inc., priority 1985, dated 1989).
